Legend:
[1] = dose of about 10 to about 20 mg/day; cited from earlier work
[2] = test system: Charcot Marie Tooth Disease symptoms (neuropathic pain); assay: Case of a subject with Charcot Marie Tooth Disease treated with sub-antimicrobial dose doxycycline; type: in vivo, human
Protocol: The subject described the pain during the daytime hours as a 2/10 and during the evening hours as a 6/10, and experienced this pain consistently for the prior 10 years. The subject began taking a sub-antimicrobial dose of doxycycline, i.e., 20 mg twice daily (i.e. Periostat®). […] Throughout the treatment period, the subject described the pain during daytime hours as a 1/10, and during the evening hours also as a 1/10. […] Within 1 week of discontinuing twice-daily sub-antimicrobial dose doxycycline treatment, the subject experienced a return of the neuropathic pain in a sporadic manner.

Structure (SMILES)	plasma concentrations in humans [1]	adverse events ([2]; 20 mg twice daily for a period of 12 weeks)	time to return of neuropathic pain (sporadic) after discontinuing treatment ([2]; after 12 weeks of 20 mg twice daily) [week]	pain during daytime hours (subject's description) ([2]; person with CMTD, 20 mg twice daily, throughout the treatment period (12 weeks), before treatment 2/10)	pain during the evening hours (subject's description) ([2]; person with CMTD, 20 mg twice daily, throughout the treatment period (12 weeks), before treatment 6/10)
NC(=O)C1=C(O)C[C@@H]2C[C@@H]3Cc4cccc(O)c4C(=O)C3=C(O)[C@]2(O)C1=O [CMT-3, 6-demethyl-6-deoxy-4-dedimethylaminotetracycline]	about 1.0 μg/ml	–	–	–	–
C[C@H]1c2cccc(O)c2C(=O)C2=C(O)[C@]3(O)C(=O)C(C(N)=O)=C(O)[C@@H](N(C)C)[C@@H]3[C@@H](O)[C@@H]21 [doxycycline, 6α-deoxy-5-hydroxytetracycline]	–	no adverse events were observed	≤ 1	1/10	1/10

Reference: patent publication US12636293B2, “Methods of treating charcot-marie-tooth disease” (CMTx Biotech Inc., priority 2019, dated 2026)
